Assay results as given in patent US9409966B2, “Glucagon-like peptide-1 derivatives and their pharmaceutical use” (priority 2007, dated 2016).
*1 amine or outer side, *2 acyl side, *3 side chain or, on linkers, in order; H or OH if unused. Where a SMILES comes first, the peptide text is derived from it. Side-chain parts run from the residue outwards. [ ]: non-standard residue; d: D form. The star is where a group is joined. X2 = O=C(O)CCCCCCCCCCCCCCCCC(=O)N[C@@H](CCC(=O)NCCOCCOCC(=O)NCCOCCOCC(=O)N[C@@H](CCCCN*)C(=O)O)C(=O)O; X1 = O=C(CCCCCCCCCCCCCCCc1nnn[nH]1)NS(=O)(=O)CCCC(=O)*; C20 diacid = O=C(O)CCCCCCCCCCCCCCCCCCC(=O)*; C18 diacid = O=C(O)CCCCCCCCCCCCCCCCC(=O)*; C16 diacid = O=C(O)CCCCCCCCCCCCCCC(=O)*; γGlu = O=C(O)[C@H](CCC(=O)[*:2])N[*:1]; Desaminohistidyl = O=C(CCc1c[nH]cn1)*; βAsp = O=C(O)[C@H](CC(=O)[*:2])N[*:1]; AEEA = NCCOCCOCC(=O)O; Aib = CC(C)(N)C(=O)O; Inp = O=C(O)C1CCNCC1; GABA = NCCCC(=O)O

Target: human serum albumin (HSA) (Homo sapiens, UniProt P02768)
Sequence (P02768 25-609): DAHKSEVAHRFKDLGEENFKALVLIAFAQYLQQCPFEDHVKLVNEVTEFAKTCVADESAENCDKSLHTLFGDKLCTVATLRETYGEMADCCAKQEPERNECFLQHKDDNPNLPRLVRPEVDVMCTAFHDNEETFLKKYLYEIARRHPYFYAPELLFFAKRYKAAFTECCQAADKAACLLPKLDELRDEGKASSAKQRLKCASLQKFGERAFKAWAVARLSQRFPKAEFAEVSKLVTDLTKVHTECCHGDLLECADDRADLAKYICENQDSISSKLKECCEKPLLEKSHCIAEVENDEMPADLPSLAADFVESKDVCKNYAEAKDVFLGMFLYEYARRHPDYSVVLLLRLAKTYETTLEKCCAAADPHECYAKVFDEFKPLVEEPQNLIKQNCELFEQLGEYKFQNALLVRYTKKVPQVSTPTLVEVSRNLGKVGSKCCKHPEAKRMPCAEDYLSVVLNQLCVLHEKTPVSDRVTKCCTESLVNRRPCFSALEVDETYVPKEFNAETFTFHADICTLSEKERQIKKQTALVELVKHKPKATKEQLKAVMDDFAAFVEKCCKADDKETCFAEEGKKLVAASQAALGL
Experiment: Albumin binding affinity, competition scintillation proximity assay (SPA)
Details: not given

EC50 [nM] | Structure (SMILES)
200 to 400 | CC[C@H](C)[C@H](NC(=O)[C@H](Cc1ccccc1)NC(=O)[C@H](CCC(=O)O)NC(=O)[C@H](CCCNC(=N)N)NC(=O)[C@H](C)NC(=O)[C@H](C)NC(=O)[C@H](CCC(N)=O)NC(=O)[C@H](CCC(=O)O)NC(=O)[C@H](CCC(=O)O)NC(=O)[C@H](CC(C)C)NC(=O)[C@H](Cc1ccc(O)cc1)NC(=O)[C@H](CO)NC(=O)[C@H](CO)NC(=O)[C@@H](NC(=O)[C@H](CC(=O)O)NC(=O)[C@H](CO)NC(=O)[C@@H](NC(=O)[C@H](Cc1ccccc1)NC(=O)[C@@H](NC(=O)CNC(=O)[C@H](CCC(=O)O)NC(=O)C(C)(C)NC(=O)[C@@H](N)Cc1c[nH]cn1)[C@@H](C)O)[C@@H](C)O)C(C)C)C(=O)N[C@@H](C)C(=O)N[C@@H](CCCCNC(=O)COCCOCCNC(=O)COCCOCCNC(=O)C[C@H](NC(=O)C1CCN(C(=O)CCCCCCCCCCCCCCCCCCC(=O)O)CC1)C(=O)O)C(=O)N[C@@H](CC(C)C)C(=O)N[C@H](C(=O)N[C@@H](CCCNC(=N)N)C(=O)NCC(=O)N[C@@H](CCCNC(=N)N)C(=O)NCC(=O)O)C(C)C [Example 6, N-epsilon31-(2-{2-[2-(2-{2-[2-((S)-3-Carboxy-3-{[1-(19-carboxy-nonadecanoyl)piperidine-4-carbonyl]amino}propionylamino)ethoxy]ethoxy}acetylamino)ethoxy]ethoxy}acetyl)[Aib8,Glu22,Arg26,Lys31,Arg34]GLP-1-(7-37)] (H-H[Aib]EGTFTSDVSSYLEEQAAREFIAK([AEEA-AEEA-βAsp-Inp-C20 diacid])LVRGRG-OH)
200 to 400 | CC[C@H](C)[C@H](NC(=O)[C@H](Cc1ccccc1)NC(=O)[C@H](CCC(=O)O)NC(=O)[C@H](CCCNC(=N)N)NC(=O)[C@H](C)NC(=O)[C@H](C)NC(=O)[C@H](CCC(N)=O)NC(=O)[C@H](CCC(=O)O)NC(=O)[C@H](CCC(=O)O)NC(=O)[C@H](CC(C)C)NC(=O)[C@H](Cc1ccc(O)cc1)NC(=O)[C@H](CO)NC(=O)[C@H](CO)NC(=O)[C@@H](NC(=O)[C@H](CC(=O)O)NC(=O)[C@H](CO)NC(=O)[C@@H](NC(=O)[C@H](Cc1ccccc1)NC(=O)[C@@H](NC(=O)CNC(=O)[C@H](CCC(=O)O)NC(=O)C(C)(C)NC(=O)[C@@H](N)Cc1c[nH]cn1)[C@@H](C)O)[C@@H](C)O)C(C)C)C(=O)N[C@@H](C)C(=O)N[C@@H](Cc1c[nH]c2ccccc12)C(=O)N[C@@H](CC(C)C)C(=O)N[C@H](C(=O)N[C@@H](CCCNC(=N)N)C(=O)NCC(=O)N[C@@H](CCCNC(=N)N)C(=O)NCCCC[C@H](NC(=O)COCCOCCNC(=O)COCCOCCNC(=O)CC[C@H](NC(=O)CCCCCCCCCCCCCCCCC(=O)O)C(=O)O)C(=O)O)C(C)C [Example 28, N-alpha37-[2-(2-{2-[2-(2-{2-[(S)-4-Carboxy-4-(17-carboxy-heptadecanoylamino)-butyrylamino]-ethoxy}-ethoxy)-acetylamino]-ethoxy}-ethoxy)-acetyl] [Aib8,Glu22,Arg26,Arg34,epsilon-Lys37]GLP-1-(7-37)peptide] (H-H[Aib]EGTFTSDVSSYLEEQAAREFIAWLVRGR-X2)
> 2000 | CC[C@H](C)[C@H](NC(=O)[C@H](Cc1ccccc1)NC(=O)[C@H](CCC(=O)O)NC(=O)[C@H](CCCNC(=N)N)NC(=O)[C@H](C)NC(=O)[C@H](C)NC(=O)[C@H](CCC(N)=O)NC(=O)[C@H](CCC(=O)O)NC(=O)[C@H](CCC(=O)O)NC(=O)[C@H](CC(C)C)NC(=O)[C@H](Cc1ccc(O)cc1)NC(=O)[C@H](CO)NC(=O)[C@H](CO)NC(=O)[C@@H](NC(=O)[C@H](CC(=O)O)NC(=O)[C@H](CO)NC(=O)[C@@H](NC(=O)[C@H](Cc1ccccc1)NC(=O)[C@@H](NC(=O)CNC(=O)[C@H](CCC(=O)O)NC(=O)[C@H](C)NC(=O)CCc1c[nH]cn1)[C@@H](C)O)[C@@H](C)O)C(C)C)C(=O)N[C@@H](CCC(=O)O)C(=O)N[C@@H](Cc1c[nH]c2ccccc12)C(=O)N[C@@H](CC(C)C)C(=O)N[C@H](C(=O)N[C@@H](CCCNC(=N)N)C(=O)NCC(=O)N[C@@H](CCCCNC(=O)COCCOCCNC(=O)COCCOCCNC(=O)CC[C@H](NC(=O)CCCCCCCCCCCCCCC(=O)O)C(=O)O)C(=O)NCC(=O)N[C@@H](CCC(=O)O)C(=O)N[C@@H](CCCCN)C(=O)O)C(C)C [Example 30, N-epsilon36-[2-(2-{2-[2-(2-{2-[(S)-4-carboxy-4-(15-carboxy-pentadecanoylamino)-butyrylamino]-ethoxy}-ethoxy)-acetylamino]-ethoxy}-ethoxy)-acetyl] [desaminoHis7, Glu22, Arg26, Glu30, Arg34, Lys36]GLP-1-(7-37)-Glu-Lys peptide] (Desaminohistidyl-AEGTFTSDVSSYLEEQAAREFIEWLVRGK([AEEA-AEEA-γGlu-C16 diacid])GEK-OH)
100 to 150 | CC[C@H](C)[C@H](NC(=O)[C@H](Cc1ccccc1)NC(=O)[C@H](CCC(=O)O)NC(=O)[C@H](CCCNC(=N)N)NC(=O)[C@H](C)NC(=O)[C@H](C)NC(=O)[C@H](CCC(N)=O)NC(=O)[C@H](CCC(=O)O)NC(=O)[C@H](CCC(=O)O)NC(=O)[C@H](CC(C)C)NC(=O)[C@H](Cc1ccc(O)cc1)NC(=O)[C@H](CO)NC(=O)[C@H](CO)NC(=O)[C@@H](NC(=O)[C@H](CC(=O)O)NC(=O)[C@H](CO)NC(=O)[C@@H](NC(=O)[C@H](Cc1ccccc1)NC(=O)[C@@H](NC(=O)CNC(=O)[C@H](CCC(=O)O)NC(=O)C(C)(C)NC(=O)[C@@H](N)Cc1c[nH]cn1)[C@@H](C)O)[C@@H](C)O)C(C)C)C(=O)N[C@@H](C)C(=O)N[C@@H](Cc1c[nH]c2ccccc12)C(=O)N[C@@H](CC(C)C)C(=O)N[C@H](C(=O)N[C@@H](CCCNC(=N)N)C(=O)NC(C)(C)C(=O)N[C@@H](CCCNC(=N)N)C(=O)N[C@@H](CCCCNC(=O)COCCOCCNC(=O)COCCOCCNC(=O)CC[C@H](NC(=O)CCCCCCCCCCCCCCCCC(=O)O)C(=O)O)C(=O)O)C(C)C [Example 33, N-epsilon37-[2-(2-{2-[2-(2-{2-[(S)-4-carboxy-4-(17-carboxy-heptadecanoylamino)-butyrylamino]-ethoxy}-ethoxy)-acetylamino]-ethoxy}-ethoxy)-acetyl]-[Aib8,Glu22, Arg26,Arg34, Aib35, Lys37]GLP-1-(7-37)] (H-H[Aib]EGTFTSDVSSYLEEQAAREFIAWLVR[Aib]RK([AEEA-AEEA-γGlu-C18 diacid])-OH)
400 to 800 | CC[C@H](C)[C@H](NC(=O)[C@H](Cc1ccccc1)NC(=O)[C@H](CCC(=O)O)NC(=O)[C@H](CCCNC(=N)N)NC(=O)[C@@H](NC(=O)[C@H](C)NC(=O)[C@H](CCC(N)=O)NC(=O)[C@H](CCC(=O)O)NC(=O)[C@H](CCC(=O)O)NC(=O)[C@H](CC(C)C)NC(=O)[C@H](Cc1ccc(O)cc1)NC(=O)[C@H](CO)NC(=O)[C@H](CO)NC(=O)[C@@H](NC(=O)[C@H](CC(=O)O)NC(=O)[C@H](CO)NC(=O)[C@@H](NC(=O)[C@H](Cc1ccccc1)NC(=O)[C@@H](NC(=O)CNC(=O)[C@H](CCC(=O)O)NC(=O)C(C)(C)NC(=O)[C@@H](N)Cc1c[nH]cn1)[C@@H](C)O)[C@@H](C)O)C(C)C)C(C)C)C(=O)N[C@@H](C)C(=O)N[C@@H](CCCCNC(=O)COCCOCCNC(=O)COCCOCCNC(=O)CC[C@H](NC(=O)CCCCCCCCCCCCCCCCC(=O)O)C(=O)O)C(=O)N[C@@H](CC(C)C)C(=O)N[C@H](C(=O)N[C@@H](CCCCN)C(=O)N[C@@H](CCCCN)C(=O)N[C@@H](CCCCN)C(N)=O)C(C)C [Example 36, N-epsilon31-[2-(2-{2-[2-(2-{2-[(S)-4-Carboxy-4-(17-carboxyheptadecanoylamino)butyrylamino]ethoxy}ethoxy)acetylamino]ethoxy}ethoxy)acetyl][Aib8,Glu22,Val25,Arg26,Lys31,Lys35,Lys36]GLP-1-(7-36) amide] (H-H[Aib]EGTFTSDVSSYLEEQAVREFIAK([AEEA-AEEA-γGlu-C18 diacid])LVKKK-NH2)

Same assay, conditions: human, pH 7.4

EC50 at 20 hours [nM] | Structure (SMILES)
150 to 200 | CC[C@H](C)[C@H](NC(=O)[C@H](Cc1ccccc1)NC(=O)[C@H](CCC(=O)O)NC(=O)[C@H](CCCNC(=N)N)NC(=O)[C@H](C)NC(=O)[C@H](C)NC(=O)[C@H](CCC(N)=O)NC(=O)[C@H](CCC(=O)O)NC(=O)[C@H](CCC(=O)O)NC(=O)[C@H](CC(C)C)NC(=O)[C@H](Cc1ccc(O)cc1)NC(=O)[C@H](CO)NC(=O)[C@H](CO)NC(=O)[C@@H](NC(=O)[C@H](CC(=O)O)NC(=O)[C@H](CO)NC(=O)[C@@H](NC(=O)[C@H](Cc1ccccc1)NC(=O)[C@@H](NC(=O)CNC(=O)[C@H](CCC(=O)O)NC(=O)C(C)(C)NC(=O)[C@@H](N)Cc1c[nH]cn1)[C@@H](C)O)[C@@H](C)O)C(C)C)C(=O)N[C@@H](CCC(=O)O)C(=O)N[C@@H](Cc1c[nH]c2ccccc12)C(=O)N[C@@H](CC(C)C)C(=O)N[C@H](C(=O)N[C@@H](CCCCN)C(=O)NCC(=O)N[C@@H](CCCNC(=N)N)C(=O)N1CCC[C@H]1C(=O)N[C@@H](CCCCNC(=O)COCCOCCNC(=O)CC[C@H](NC(=O)CC[C@H](NC(=O)CCCNC(=O)CCCS(=O)(=O)NC(=O)CCCCCCCCCCCCCCCc1nnn[nH]1)C(=O)O)C(=O)O)C(=O)O)C(C)C [Example 14, [Aib8,Glu22,Arg26,Glu30,Pro37]GLP-1-(7-37)Lys [2-(2-{2-[4-Carboxy-4-(4-carboxy-4-{4-[4-(16-1H-tetrazol-5-yl-hexadecanoylsulfamoyl)butyrylamino]butyrylamino}butyrylamino)butyrylamino]ethoxy}ethoxy)acetyl]] (H-H[Aib]EGTFTSDVSSYLEEQAAREFIEWLVKGRPK([AEEA-γGlu-γGlu-GABA-X1])-OH; N-terminus and C-terminus assumed)
